Test results from US11117926B2, “Cholane derivatives for use in the treatment and/or prevention of FXR and TGR5/GPBAR1 mediated diseases” (BAR PHARMACEUTICALS S.R.L., priority 2014, dated 2021).
Counter-ions that a name gives are not always drawn.

Legend:
FXR = molecular target: T1, FXR (Homo sapiens, UniProt Q96RI1); assay: FXR mediated transactivation (luciferase reporter) in transfected HepG2 cells; format: cell-based; conditions: each compound at 10 microM, transactivation activity of CDCA on FXR = 100%
T1 construct: expressed in transfected cells; host or cells: HepG2
T1 sequence (Q96RI1 1-486): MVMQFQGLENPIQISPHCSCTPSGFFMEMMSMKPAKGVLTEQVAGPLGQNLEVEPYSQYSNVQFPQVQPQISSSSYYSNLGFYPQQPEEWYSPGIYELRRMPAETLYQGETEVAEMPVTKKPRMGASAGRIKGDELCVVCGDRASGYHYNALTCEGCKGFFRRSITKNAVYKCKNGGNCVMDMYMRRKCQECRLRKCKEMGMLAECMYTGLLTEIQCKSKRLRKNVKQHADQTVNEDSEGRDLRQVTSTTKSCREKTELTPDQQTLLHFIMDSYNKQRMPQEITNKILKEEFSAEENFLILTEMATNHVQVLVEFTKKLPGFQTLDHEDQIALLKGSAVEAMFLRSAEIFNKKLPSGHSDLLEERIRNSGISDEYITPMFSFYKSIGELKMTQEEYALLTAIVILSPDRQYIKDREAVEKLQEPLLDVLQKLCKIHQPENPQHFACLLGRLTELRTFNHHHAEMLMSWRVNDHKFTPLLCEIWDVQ
T1 sequence (P19793 1-462 partner): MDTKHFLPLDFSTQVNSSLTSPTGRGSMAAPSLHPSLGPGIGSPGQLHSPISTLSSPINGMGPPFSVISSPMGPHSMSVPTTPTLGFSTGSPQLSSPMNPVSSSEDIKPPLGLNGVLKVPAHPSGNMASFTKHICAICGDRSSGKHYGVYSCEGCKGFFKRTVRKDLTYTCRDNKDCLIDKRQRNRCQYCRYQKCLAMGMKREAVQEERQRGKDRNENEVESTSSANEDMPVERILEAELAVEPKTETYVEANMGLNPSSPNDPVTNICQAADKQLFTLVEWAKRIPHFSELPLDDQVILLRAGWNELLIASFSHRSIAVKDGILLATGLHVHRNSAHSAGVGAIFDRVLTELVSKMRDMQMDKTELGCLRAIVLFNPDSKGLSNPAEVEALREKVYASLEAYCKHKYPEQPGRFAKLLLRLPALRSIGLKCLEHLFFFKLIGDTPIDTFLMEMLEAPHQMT
Description: (§1) Each compound was tested at the concentration of 10 microM and transactivation activity of CDCA on FXR and TLCA on CRE (i.e. TGR5/GPBAR1) was considered equal to 100%.
(§2) Biological Activities. Activity of selected compounds was tested in vitro using a whole cell model transfected with a reporter genes to establish selectivity of compounds shown in table 1 toward FXR and TGR5/GPBAR1 in comparison with chenodeoxycholic acid (CDCA) and TLCA. CDCA is a primary bile acid that functions as an endogenous ligand for FXR, while TLCA is a physiological ligand for TGR5/GPBAR1. In this assay, HepG2 cells (a liver-derived cell line) were cultured at 37° C. in minimum essential medium with Earl's salts containing 10% fetal bovine serum (FBS), 1% L-glutamine, and 1% penicillin/streptomycin. […] The transfection experiments were performed using Fugene HD according to manufactured specifications. Cells were plated in a 24-well plate at 5×10^4 cells/well. For FXR mediated transactivation, HepG2 cells were transfected with 100 ng of pSG5-FXR, 100 ng of pSG5-RXR, 100 ng of pGL4.70 a vector encoding the human Renilla gene and 250 ng of the reporter vector p(hsp27)-TK-LUC containing the FXR response element IR1 cloned from the promoter of heat shock protein 27 (hsp27).
(§3) At 24 h post-transfection, cells were stimulated for 18 h with 10 μM TLCA as a control agent or putative GPBAR1 agonists as the same concentration. After treatments, cells were lysed in 100 μL of lysis buffer (25 mM Tris-phosphate, pH 7.8; 2 mM DTT; 10% glycerol; 1% Triton X-100), and 20 μL of cellular lysate was assayed for luciferase activity using the luciferase assay system. Luminescence was measured using Glomax 20/20 luminometer. Luciferase activities were normalized against Renilla activities. Antagonism against FXR of GPBAR1/TGR5 was measured as percent of activity in transactivation assay suing activity of TLCA as example of agonism.

human GPBAR1 = molecular target: T2, human GPBAR1 (Homo sapiens, UniProt Q8TDU6); assay: GPBAR1 mediated transactivation (CRE luciferase reporter) in transfected HEK-293T cells; format: cell-based; conditions: each compound at 10 microM, transactivation activity of TLCA on CRE = 100%
T2 construct: expressed in transfected cells; host or cells: HEK-293T
T2 sequence (Q8TDU6 1-330): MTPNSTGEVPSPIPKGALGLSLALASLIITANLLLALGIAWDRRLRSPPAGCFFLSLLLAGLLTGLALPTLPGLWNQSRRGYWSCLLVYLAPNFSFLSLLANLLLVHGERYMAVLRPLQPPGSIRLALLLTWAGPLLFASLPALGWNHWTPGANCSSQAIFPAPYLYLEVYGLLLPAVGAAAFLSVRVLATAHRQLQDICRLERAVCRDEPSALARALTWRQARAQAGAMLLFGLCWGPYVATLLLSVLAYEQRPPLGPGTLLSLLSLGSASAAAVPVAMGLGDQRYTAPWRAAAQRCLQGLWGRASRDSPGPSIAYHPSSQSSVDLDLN
Description: as §1, §2, §3

Row | SMILES | FXR (% of activity in comparison to 10 μM CDCA) (FXR) | GPBAR1 (% of activity in comparison to 10 μM TLCA) (human GPBAR1)
1 | CC[C@H]1[C@H](O)[C@@H]2[C@H](CC[C@]3(C)[C@@H]([C@H](C)CCCO)CC[C@@H]23)[C@@]2(C)CC[C@@H](O)C[C@@H]12 [BAR501-6a, 6α-ethyl-3α,7β-dihydroxy-5β-cholan-24-ol] | 15.4 ± 1.2% | 46.6 ± 6.7%
2 | CC[C@H]1[C@@H](O)[C@@H]2[C@H](CC[C@]3(C)[C@@H]([C@H](C)CCCO)CC[C@@H]23)[C@@]2(C)CC[C@H](O)C[C@@H]12 [BAR706, 6α-ethyl-3β,7α-dihydroxy-5β-cholan-24-ol] | 153 ± 9.0% | 66.05 ± 7.6%
3 | CC[C@H]1[C@@H](O)C2C3CC[C@H]([C@H](C)CCCO)[C@@]3(C)CCC2[C@@]2(C)CC[C@@H](O)C[C@@H]12 (some centres unmarked) [BAR504] | 488.5 ± 17.5% | 103.0 ± 12.1%
4 | CC[C@@H]1[C@H](O)C2C3CC[C@H]([C@H](C)CCO)[C@@]3(C)CCC2[C@@]2(C)CC[C@@H](O)C[C@@H]12 (stereo partly drawn) [BARn501, 6β-ethyl-3α, 7β-dihydroxy-24-nor-5β-cholan-23-ol] | 8.5 ± 1.4% | 83.1 ± 7.4%
5 | CC[C@H]1[C@@H](O)C2C3CC[C@H]([C@H](C)CCCCCOS(=O)(=O)O)[C@@]3(C)CCC2[C@@]2(C)CC[C@@H](O)C[C@@H]12 (stereo partly drawn) [BAR804, 6α-ethyl-3α, 7α-dihydroxy-25, 26-bishomo-5β-cholan-26-yl-26-sodium sulfate] | 196.5 ± 6.5% | 52.5 ± 3.5%
6 | C[C@H](CCCCCO)[C@H]1CCC2C3C(CC[C@@]21C)[C@@]1(C)CC[C@@H](O)C[C@H]1C[C@@H]3O (stereo partly drawn) [BAR304, 25, 26-bishomo-5β-cholan-3α, 7β, 26-triol] | 0% | 55.1 ± 12.5%
7 | CC[C@@H]1[C@@H](O)[C@@H]2[C@H](CC[C@]3(C)[C@@H]([C@H](C)CCCO)CC[C@@H]23)[C@@]2(C)CC[C@H](O)C[C@@H]12 [BAR709, 6β-ethyl-3β,7α-dihydroxy-5β-cholan-24-ol] | 33.7 ± 2.0% | 54.2 ± 0.3%
8 | CC[C@H]1[C@@H](O)[C@@H]2[C@H](CC[C@]3(C)[C@@H]([C@H](C)CCC(=O)O)CC[C@@H]23)[C@@]2(C)CCCC[C@@H]12 [BAR704, 6α-ethyl-7α-hydroxy-5β-cholan-24-oic acid] | 220.5 ± 37.5% | 27.9 ± 6.3%
9 | CC[C@H]1[C@@H](O)[C@@H]2[C@H](CC[C@]3(C)[C@@H]([C@H](C)CCCO)CC[C@@H]23)[C@@]2(C)CCCC[C@@H]12 [BAR701, 6α-ethyl-7α-hydroxy-5β-cholan-24-ol] | 101.3 ± 10.1% | 50.2 ± 2.3%
10 | CC[C@H]1[C@@H](O)C2C3CC[C@H]([C@H](C)CCO)[C@@]3(C)CCC2[C@@]2(C)CC[C@H](O)C[C@@H]12 (stereo partly drawn) [BARn706, 6α-ethyl-3β,7α-dihydroxy-24-nor-5β-cholan-23-ol] | 197.5 ± 4.5% | 69.5 ± 6.5%
11 | CC[C@H]1[C@H](O)[C@@H]2[C@H](CC[C@]3(C)[C@@H]([C@H](C)CCCO)CC[C@@H]23)[C@@]2(C)CC[C@H](O)C[C@@H]12 [BAR707, 6α-ethyl-3β,7β-dihydroxy-5β-cholan-24-ol] | 92.5 ± 7.5% | 65 ± 6.0%
12 | CC[C@@H]1[C@H](O)[C@@H]2[C@H](CC[C@]3(C)[C@@H]([C@H](C)CCCO)CC[C@@H]23)[C@@]2(C)CC[C@H](O)C[C@@H]12 [BAR708, 6β-ethyl-3β,7β-dihydroxy-5β-cholan-24-ol] | 6.4 ± 0.8% | 57.6 ± 4.6%
13 | CC[C@@H]1[C@H](O)[C@@H]2[C@H](CC[C@]3(C)[C@@H]([C@H](C)CCCO)CC[C@@H]23)[C@@]2(C)CCCC[C@@H]12 [BAR702, 6β-ethyl-7β-hydroxy-5β-cholan-24-ol] | 11.7 ± 0.8% | 35.8 ± 1.2%
14 | CC[C@H]1[C@@H](O)C2C3CC[C@H]([C@H](C)CCCCC(=O)O)[C@@]3(C)CCC2[C@@]2(C)CC[C@@H](O)C[C@@H]12 (stereo partly drawn) [BAR802, 6α-ethyl-3α, 7α-dihydroxy-25, 26-bishomo-5β-cholan-26-oic acid] | 11.5 ± 8.5% | 56 ± 5.0%
15 | CC[C@@H]1[C@@H](O)[C@@H]2[C@H](CC[C@]3(C)[C@@H]([C@H](C)CCCO)CC[C@@H]23)[C@@]2(C)CCCC[C@@H]12 [BAR705, 6β-ethyl-7α-hydroxy-5β-cholan-24-ol] | 43.7 ± 3.9% | 67.0 ± 9.9%
16 | CC[C@H]1[C@@H](O)C2C3CC[C@H]([C@H](C)CCOS(=O)(=O)O)[C@@]3(C)CCC2[C@@]2(C)CC[C@H](O)C[C@@H]12 (stereo partly drawn) [BARn706solf, 6α-ethyl-3β,7α-dihydroxy-24-nor-5β-cholan-23-yl 23-sodium sulfate] |  | 71.5 ± 0.5%
17 | C[C@H](CCCOS(=O)(=O)O)[C@H]1CCC2C3C(CC[C@@]21C)[C@@]1(C)CCCC[C@H]1C[C@H]3O (stereo partly drawn) [BAR402, 7α-hydroxy-5β-cholan-24-yl-24-sodium sulfate] | 336.4 ± 20.8% | 28.0 ± 1.8%
18 | C[C@H](CCO)[C@H]1CCC2C3C(CC[C@@]21C)[C@@]1(C)CC[C@@H](O)C[C@H]1C[C@@H]3O (stereo partly drawn) [BAR107, 3α,7β-dihydroxy-24-nor-5β-cholan-23-ol] | 1.8 ± 0.3% | 9.9 ± 1.7%
19 | CC[C@H]1[C@@H](O)C2C3CC[C@H]([C@H](C)CC(=O)O)[C@@]3(C)CCC2[C@@]2(C)CCCC[C@@H]12 (stereo partly drawn) [BARn704, 6α-ethyl-7α-hydroxy-24-nor-5β-cholan-23-oic acid] | 202.5 ± 1.5% | 64 ± 2.0%
20 | C[C@H](CCOS(=O)(=O)[O-])[C@H]1CC[C@H]2[C@@H]3[C@@H](O)C[C@@H]4C[C@H](O)CC[C@]4(C)[C@H]3CC[C@]12C.[Na+] [BAR106, 3α,7β-dihydroxy-24-nor-5β-cholan-23-yl-23-sodium sulfate] | 0% | 19.0 ± 1.3%
21 | CC[C@@H]1[C@@H](O)[C@@H]2[C@H](CC[C@]3(C)[C@@H]([C@H](C)CCCO)CC[C@@H]23)[C@@]2(C)CC[C@@H](O)C[C@@H]12 [BAR504-6b, 6β-ethyl-3α,7α-dihydroxy-5β-cholan-24-ol] | 32.4 ± 14.1% | 75.3 ± 3.4%
